{
  "source": "paper PMC5575475",
  "about": "(Angewandte Chemie (International Ed. in English), 2017)",
  "molecules": {"B1": {"name": "truncated 14‐3‐3βΔC variant (domain or fragment)", "chain": "QGSMTMDKSELVQKAKLAEQAERYDDMAAAMKAVTEQGHELSNEERNLLSVAYKNVVGARRSSWRVISSIEQKTERNEKKQQMGKEYREKIEAELQDICNDVLELLDKYLIPNATQPESKVFYLKMKGDYFRYLSEVASGDNKQTTVSNSQQAYQEAFEISKKEMQPTHPIRLGLALNFSVFYYEILNSPEKACSLAKTAFDEAIAELDTLNEESYKDSTLIMQLLRDNLTLWTSENQGDEGDAGEGEN"}},
  "key": {"[1]": {"biological_target": "T1, 14-3-3β (Homo sapiens, UniProt P31946)", "T1 sequence (P31946 1-246)": "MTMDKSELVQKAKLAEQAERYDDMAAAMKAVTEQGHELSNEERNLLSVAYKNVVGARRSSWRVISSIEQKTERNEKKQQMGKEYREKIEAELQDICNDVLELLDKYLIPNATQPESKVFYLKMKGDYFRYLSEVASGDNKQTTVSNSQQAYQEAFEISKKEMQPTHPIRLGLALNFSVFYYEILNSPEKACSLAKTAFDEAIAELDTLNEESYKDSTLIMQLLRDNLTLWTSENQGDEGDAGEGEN", "format": "binding", "settings": "at very low and very high FGG-ERα peptide concentrations"}, "[2]": {"biological_target": "T1, 14-3-3β", "format": "binding"}, "[3]": {"biological_target": "14‐3‐3β adapter protein (dimer) (UniProt P31946)", "experiment": "fluorescence polarisation"}, "[4]": {"biological_target": "14‐3‐3β adapter protein (dimer) (UniProt P31946)", "experiment": "fluorescence polarisation", "remark": "listed apart in the source"}, "[5]": {"biological_target": "the molecule itself", "experiment": "crystal structure"}, "[6]": {"settings": "FGG-ERα titration at constant Q8 concentrations"}},
  "note": "Read-outs that look alike come from different tables or passages of the source.",
  "data": [
    {"molecule": "O=C1N2CN3C(=O)N4CN5C(=O)N6CN7C(=O)N8CN9C(=O)N%10CN%11C(=O)N%12CN%13C(=O)N%14CN%15C(=O)N%16CN1C1C2N2CN%17C(=O)N(CN%18C(=O)N(CN%19C(=O)N(CN%20C(=O)N(CN%21C(=O)N(CN%22C(=O)N(CN%23C(=O)N(CN1C2=O)C%16C%15%23)C%14C%13%22)C%12C%11%21)C%10C9%20)C8C7%19)C6C5%18)C4C3%17", "note": "(stereo not shown) [Q8, Cucurbit[8]uril]", "values": [
      {"measurement": "effect of Q8", "setting": "[1]", "value": "negligible"},
      {"measurement": "Q8 concentration at which the enhancement effect appears to saturate", "setting": "[2]; [6]", "value": "approximately 10 μM"},
      {"measurement": "combinatorial inhibition at high Q8 concentrations", "setting": "[2]; [6]", "value": "no evidence of combinatorial inhibition"}
    ]},
    {"molecule": "Cucurbit[7]uril [Q7]", "values": [
      {"measurement": "enhancement of apparent affinity of FGG-ERα for 14-3-3", "setting": "[2]; Q7 instead of Q8 (Figure 2E)", "value": "did not enhance the apparent affinity"}
    ]},
    {"molecule": "FGG‐ERα phosphopeptide (15‐mer: N‐terminal FGG motif fused to the wild‐type 14‐3‐3‐binding epitope of estrogen receptor α)", "values": [
      {"measurement": "IC50", "setting": "[3]", "value": 1000, "unit": "nM"},
      {"measurement": "IC50", "setting": "[4]", "value": 70, "unit": "nM"}
    ]},
    {"molecule": "B1", "values": [
      {"measurement": "stoichiometry N", "setting": "[5]", "value": 2}
    ]}
  ]
}
